Source: PubChem BioAssay AID1963977 (Molecular Pharmacology Branch, DTP, NCI, 2024)
Blank lines part the entries; values can stand above or below the compound they belong to.

Test system: 624824-186-R-J3-PDC multicell spheroids, viability
Assay: Anticancer human tumor 624824-186-R-J3-PDC patient-derived colon adenocarcinoma cell line growth inhibition [PI3K]
Settings: for IC50: curve of first compound; for viability, T/C: stronger effect = lower value
Summary of the method: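 We assembled tumor spheroids that included a stromal compartment of HUVEC and MSCs, then exposed them to targeted agents alone and together with PI3K pathway inhibitors. Concentration series descended by half-log from clinically achievable Cmax levels. Viability served as the endpoint.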

[1] = second compound 0.0316 µM, first compound 0.0316 µM
[2] = second compound 0.0316 µM, first compound 0.1 µM
[3] = second compound 0.0316 µM, first compound 0.316 µM
[4] = second compound 0.0316 µM, first compound 1 µM
[5] = second compound 0.0316 µM, first compound 3.16 µM
[6] = second compound 0.0316 µM, first compound 10 µM
[7] = second compound 0.1 µM, first compound 0.0316 µM
[8] = second compound 0.1 µM, first compound 0.1 µM
[9] = second compound 0.1 µM, first compound 0.316 µM
[10] = second compound 0.1 µM, first compound 1 µM
[11] = second compound 0.1 µM, first compound 3.16 µM
[12] = second compound 0.1 µM, first compound 10 µM
[13] = second compound 0.316 µM, first compound 0.0316 µM
[14] = second compound 0.316 µM, first compound 0.1 µM
[15] = second compound 0.316 µM, first compound 0.316 µM
[16] = second compound 0.316 µM, first compound 1 µM
[17] = second compound 0.316 µM, first compound 3.16 µM
[18] = second compound 0.316 µM, first compound 10 µM
[19] = second compound 1 µM, first compound 0.0316 µM
[20] = second compound 1 µM, first compound 0.1 µM
[21] = second compound 1 µM, first compound 0.316 µM
[22] = second compound 1 µM, first compound 1 µM
[23] = second compound 1 µM, first compound 3.16 µM
[24] = second compound 1 µM, first compound 10 µM
[25] = second compound 3.16 µM, first compound 0.0316 µM
[26] = second compound 3.16 µM, first compound 0.1 µM
[27] = second compound 3.16 µM, first compound 0.316 µM
[28] = second compound 3.16 µM, first compound 1 µM
[29] = second compound 3.16 µM, first compound 3.16 µM
[30] = second compound 3.16 µM, first compound 10 µM
[31] = second compound 10 µM, first compound 0.0316 µM
[32] = second compound 10 µM, first compound 0.1 µM
[33] = second compound 10 µM, first compound 0.316 µM
[34] = second compound 10 µM, first compound 1 µM
[35] = second compound 10 µM, first compound 3.16 µM
[36] = second compound 10 µM, first compound 10 µM
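Further: spheroids exposed to agents for seven days before luminescence read.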
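Wherever viability, T/C is given: luminescent signal used as a stand-in for spheroid viability; percent viability relative to DMSO vehicle control wells taken as 100%.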

SMILES: Cn1ncc(Cl)c1-c1cc(C(=O)NC(CN)Cc2cccc(F)c2)sc1Cl (stereo not given) + CC(Nc1ncnc2nc[nH]c12)c1cc2cccc(Cl)c2c(=O)n1-c1ccccc1
IC50 (second compound 0.0316 µM): > 10 µM | IC50 (second compound 0.1 µM): 8.15 µM | IC50 (second compound 0.316 µM): 5.63 µM | IC50 (second compound 1 µM): 5.17 µM | IC50 (second compound 3.16 µM): 4.18 µM | IC50 (second compound 10 µM): 2.26 µM | viability, T/C [1]: 95.7% | viability, T/C [2]: 109% | viability, T/C [3]: 103% | viability, T/C [4]: 69.4% | viability, T/C [5]: 62.4% | viability, T/C [6]: 47.8% | viability, T/C [7]: 115% | viability, T/C [8]: 101% | viability, T/C [9]: 96.1% | viability, T/C [10]: 83.5% | viability, T/C [11]: 64.5% | viability, T/C [12]: 46.5% | viability, T/C [13]: 103% | viability, T/C [14]: 101% | viability, T/C [15]: 90.7% | viability, T/C [16]: 75.4% | viability, T/C [17]: 59.9% | viability, T/C [18]: 41% | viability, T/C [19]: 107% | viability, T/C [20]: 102% | viability, T/C [21]: 91.9% | viability, T/C [22]: 78.6% | viability, T/C [23]: 61.5% | viability, T/C [24]: 35.2% | viability, T/C [25]: 96.8% | viability, T/C [26]: 94% | viability, T/C [27]: 86.3% | viability, T/C [28]: 64.4% | viability, T/C [29]: 57.6% | viability, T/C [30]: 37.5% | viability, T/C [31]: 94.3% | viability, T/C [32]: 89.6% | viability, T/C [33]: 73.5% | viability, T/C [34]: 60.5% | viability, T/C [35]: 45.7% | viability, T/C [36]: 38.5%

SMILES: Cn1nccc1Nc1nccc(-c2ccn(C(CO)c3ccc(Cl)c(F)c3)c(=O)c2)n1 (stereo not given) + CC(Nc1ncnc2nc[nH]c12)c1cc2cccc(Cl)c2c(=O)n1-c1ccccc1
IC50 (second compound 0.0316 µM): > 10 µM | IC50 (second compound 0.1 µM): > 10 µM | IC50 (second compound 0.316 µM): > 10 µM | IC50 (second compound 1 µM): 9.34 µM | IC50 (second compound 3.16 µM): 2.84 µM | IC50 (second compound 10 µM): 0.633 µM | viability, T/C [1]: 103% | viability, T/C [2]: 93.9% | viability, T/C [3]: 95.1% | viability, T/C [4]: 76.9% | viability, T/C [5]: 61.2% | viability, T/C [6]: 57.4% | viability, T/C [7]: 103% | viability, T/C [8]: 85.4% | viability, T/C [9]: 94.5% | viability, T/C [10]: 74% | viability, T/C [11]: 61.2% | viability, T/C [12]: 57.3% | viability, T/C [13]: 89.7% | viability, T/C [14]: 88% | viability, T/C [15]: 87% | viability, T/C [16]: 72.7% | viability, T/C [17]: 62.6% | viability, T/C [18]: 51.8% | viability, T/C [19]: 98.5% | viability, T/C [20]: 88.2% | viability, T/C [21]: 91.2% | viability, T/C [22]: 77.7% | viability, T/C [23]: 61.8% | viability, T/C [24]: 49.4% | viability, T/C [25]: 103% | viability, T/C [26]: 88.1% | viability, T/C [27]: 74.8% | viability, T/C [28]: 63% | viability, T/C [29]: 47.4% | viability, T/C [30]: 38.5% | viability, T/C [31]: 89.6% | viability, T/C [32]: 81.7% | viability, T/C [33]: 59.4% | viability, T/C [34]: 43.5% | viability, T/C [35]: 35.5% | viability, T/C [36]: 30.2%

Now from value to compound, other results behind:

IC50 (second compound 0.0316 µM): > 10 µM | IC50 (second compound 0.1 µM): > 10 µM | IC50 (second compound 0.316 µM): > 10 µM | IC50 (second compound 1 µM): > 10 µM | IC50 (second compound 3.16 µM): > 10 µM | IC50 (second compound 10 µM): > 10 µM
SMILES: C=CC(=O)N1CCN(c2nc(=O)n(-c3c(C)ccnc3C(C)C)c3nc(-c4c(O)cccc4F)c(F)cc23)C(C)C1 (stereo not given) + CC(Nc1ncnc2nc[nH]c12)c1cc2cccc(Cl)c2c(=O)n1-c1ccccc1
viability, T/C [1]: 125% | viability, T/C [2]: 96.1% | viability, T/C [3]: 114% | viability, T/C [4]: 102% | viability, T/C [5]: 113% | viability, T/C [6]: 121% | viability, T/C [7]: 105% | viability, T/C [8]: 94.6% | viability, T/C [9]: 121% | viability, T/C [10]: 97.7% | viability, T/C [11]: 107% | viability, T/C [12]: 119% | viability, T/C [13]: 96.9% | viability, T/C [14]: 116% | viability, T/C [15]: 100% | viability, T/C [16]: 108% | viability, T/C [17]: 111% | viability, T/C [18]: 120% | viability, T/C [19]: 106% | viability, T/C [20]: 111% | viability, T/C [21]: 109% | viability, T/C [22]: 111% | viability, T/C [23]: 127% | viability, T/C [24]: 116% | viability, T/C [25]: 104% | viability, T/C [26]: 107% | viability, T/C [27]: 97.9% | viability, T/C [28]: 106% | viability, T/C [29]: 102% | viability, T/C [30]: 115% | viability, T/C [31]: 95.3% | viability, T/C [32]: 103% | viability, T/C [33]: 95.5% | viability, T/C [34]: 114% | viability, T/C [35]: 99.6% | viability, T/C [36]: 93.3%

IC50 (second compound 0.0316 µM): > 10 µM | IC50 (second compound 0.1 µM): > 10 µM | IC50 (second compound 0.316 µM): > 10 µM | IC50 (second compound 1 µM): > 10 µM | IC50 (second compound 3.16 µM): > 10 µM | IC50 (second compound 10 µM): > 10 µM
SMILES: CC(Cn1ccc(-c2ccc(C#N)c(Cl)c2)n1)NC(=O)c1cc(C(C)O)[nH]n1 (stereo not given) + CC(Nc1ncnc2nc[nH]c12)c1cc2cccc(Cl)c2c(=O)n1-c1ccccc1
viability, T/C [1]: 104% | viability, T/C [2]: 97% | viability, T/C [3]: 98.8% | viability, T/C [4]: 99.6% | viability, T/C [5]: 105% | viability, T/C [6]: 109% | viability, T/C [7]: 104% | viability, T/C [8]: 102% | viability, T/C [9]: 95.3% | viability, T/C [10]: 104% | viability, T/C [11]: 108% | viability, T/C [12]: 97.7% | viability, T/C [13]: 103% | viability, T/C [14]: 103% | viability, T/C [15]: 103% | viability, T/C [16]: 104% | viability, T/C [17]: 115% | viability, T/C [18]: 117% | viability, T/C [19]: 102% | viability, T/C [20]: 111% | viability, T/C [21]: 100% | viability, T/C [22]: 115% | viability, T/C [23]: 99.6% | viability, T/C [24]: 113% | viability, T/C [25]: 96.3% | viability, T/C [26]: 101% | viability, T/C [27]: 112% | viability, T/C [28]: 97.1% | viability, T/C [29]: 109% | viability, T/C [30]: 104% | viability, T/C [31]: 93.2% | viability, T/C [32]: 99% | viability, T/C [33]: 94.2% | viability, T/C [34]: 88.2% | viability, T/C [35]: 91.8% | viability, T/C [36]: 95.6%

IC50 (second compound 0.0316 µM): > 1 µM | IC50 (second compound 0.1 µM): > 1 µM | IC50 (second compound 0.316 µM): > 1 µM | IC50 (second compound 1 µM): > 1 µM | IC50 (second compound 3.16 µM): > 1 µM | IC50 (second compound 10 µM): > 1 µM
SMILES: CCN1CCN(Cc2ccc(Nc3ncc(F)c(-c4cc(F)c5nc(C)n(C(C)C)c5c4)n3)nc2)CC1 + CC(Nc1ncnc2nc[nH]c12)c1cc2cccc(Cl)c2c(=O)n1-c1ccccc1
viability, T/C (second compound 0.0316 µM, first compound 0.00316 µM): 101% | viability, T/C (second compound 0.0316 µM, first compound 0.01 µM): 94% | viability, T/C [1]: 101% | viability, T/C [2]: 110% | viability, T/C [3]: 99% | viability, T/C [4]: 109% | viability, T/C (second compound 0.1 µM, first compound 0.00316 µM): 103% | viability, T/C (second compound 0.1 µM, first compound 0.01 µM): 108% | viability, T/C [7]: 97.2% | viability, T/C [8]: 106% | viability, T/C [9]: 111% | viability, T/C [10]: 97.6% | viability, T/C (second compound 0.316 µM, first compound 0.00316 µM): 105% | viability, T/C (second compound 0.316 µM, first compound 0.01 µM): 110% | viability, T/C [13]: 96.4% | viability, T/C [14]: 111% | viability, T/C [15]: 99.8% | viability, T/C [16]: 99.7% | viability, T/C (second compound 1 µM, first compound 0.00316 µM): 93.1% | viability, T/C (second compound 1 µM, first compound 0.01 µM): 103% | viability, T/C [19]: 104% | viability, T/C [20]: 94.3% | viability, T/C [21]: 92.2% | viability, T/C [22]: 101% | viability, T/C (second compound 3.16 µM, first compound 0.00316 µM): 106% | viability, T/C (second compound 3.16 µM, first compound 0.01 µM): 100% | viability, T/C [25]: 102% | viability, T/C [26]: 90.8% | viability, T/C [27]: 88.1% | viability, T/C [28]: 81.8% | viability, T/C (second compound 10 µM, first compound 0.00316 µM): 96.6% | viability, T/C (second compound 10 µM, first compound 0.01 µM): 96.7% | viability, T/C [31]: 87% | viability, T/C [32]: 78.1% | viability, T/C [33]: 65.3% | viability, T/C [34]: 67%
